Source: US5723461A, “Quinoxalines, a process for their preparation and their use” (Hoechst Aktiengesellschaft, priority 1994, dated 1998)
≈ marks a conversion by molar mass, not a printed value.

Assays:
HIV = experiment: Testing of preparations against HIV in cell culture (T-cell culture assay); assay type: cell-based; conditions: Human immunodeficiency virus 1, 72 h, HIV-infected lymphocytes, 3 days at 37° C., lowest concentration at which no giant cells occurred, read-out: MIC EC50
Method: Testing of preparations against HIV in cell culture
Description of the method:
Complete medium additionally contains 20% fetal calf serum and 40 IU/ml recombinant interleukin 2.
Lymphocytes, which have been isolated from fresh donor blood by means of Ficoll® gradient centrifugation, are cultured, for 36 hours at 37° C. and under 5% CO2, in complete medium which additionally contains […] phytohemagglutinin (Wellcome). After 10% DMSO has been added, the cells are frozen at a cell density of 5×10^6 and stored in liquid nitrogen. For the experiment, the cells are thawed, washed in the RPMI medium and cultured for 3 to 4 days in the complete medium.
The test preparations were dissolved in DMSO at a concentration of 16.7 mg/ml, and these solutions were diluted with complete medium to a concentration of 1 mg/ml. 0.4 ml of medium was initially introduced into 24-well multiwell plates. After 0.1 ml of the dissolved preparation had been added to the upper row of the plate, a geometric dilution series was produced by transferring 0.1 ml on each occasion. Preparation-free controls contained 0.4 ml of complete medium containing 0.5% DMSO.
Lymphocyte cultures having a cell count of 5×10^5 cells/ml were infected by adding a 1/50 volume of the supernatant from HIV-infected lymphocyte cultures. The titer of these culture supernatants was determined by end-point dilution to be 1-5×10^6 infectious units/ml. After having been incubated at 37° C. for 30 min, the infected lymphocytes were centrifuged off and taken up once again in the same volume of medium. 0.6 ml of this cell suspension was added to each of the wells in the test plate. The assay mixtures were incubated at 37° C. for 3 days.
The infected cell cultures were examined under the microscope for the presence of giant cells, which are indicative of active viral replication in the culture. The lowest preparation concentration at which no giant cells occurred was determined and taken to be the inhibitory concentration against HIV. As a control, the supernatants from the culture plates were assayed for the presence of HIV antigen using an HIV antigen test in accordance with the manufacturer's (Organon) instructions.

[1] = target: T1, HIV reverse transcriptase (Human immunodeficiency virus type 1 group M subtype B, UniProt P04585); experiment: Inhibition of HIV reverse transcriptase (scintillation proximity assay); assay type: biochemical; conditions: Reverse transcriptase assay (SPA), 60 min, 37° C.
T1 construct: purchased HT Biotechnology Ltd., Cambridge, UK; host or cells: E. coli
Method: Examination of the substances for their ability to inhibit HIV reverse transcriptase
The activity of the reverse transcriptase (RT) was determined using a scintillation proximity assay (SPA).
The reagent kit for the RT SPA was obtained from Amersham/Buchler (Braunschweig). The RT enzyme (derived from HIV and cloned in E. coli) was obtained from HT Biotechnology Ltd., Cambridge, UK.
The test was carried out in accordance with the manufacturer's (Amersham) methods manual, with the following modifications:
Bovine serum albumin was added to the assay buffer to a final concentration of 0.5 mg/ml.
The test was carried out in Eppendorf tubes using an assay mixture volume of 100 μl.
The manufacturer's RT concentrate (5000 U/ml) was diluted to an activity of 15 U per ml using 20 mM tris-HCl buffer, pH 7.2, 30% glycerol.
The assay mixtures were incubated for 60 min (37° C.).
After the reaction had been stopped and "developed" with the bead suspension, 130 μl of assay mixture were transferred into 4.5 ml of 10 mM tris-HCl buffer, pH 7.4, 0.15M NaCl and the tritium activity was measured in a β-counter.
In order to carry out a preliminary test of their inhibitory activity, the substances were dissolved in DMSO (stock solution, c=1 mg/ml) and tested when diluted 10^-1, 10^-2, 10^-3 etc. in DMSO.
In order to determine IC50 values, the stock solutions of inhibitor were further diluted in 50 mM tris-HCl buffer, pH 8, and tested at suitable concentrations.
The concentration associated with 50% inhibition of the enzyme was ascertained from the plot of RT activity against log Cinh.

| Structure (SMILES) | EC50 (HIV) [µg/mL] | IC50 [1] [nM] |
| --- | --- | --- |
| COc1ccc2c(c1)N(C(=O)OC(C)C)[C@@H](CSC)C(=O)N2 [Example 29, S-4-Isopropoxycarbonyl-6-methoxy-3-(methylthiomethyl)-3,4-dihydroquinoxalin-2(1H)-one] | < 0.008 | 30.8 to 308 |
| CC[C@H]1C(=O)Nc2ccccc2N1C(=O)OC(C)C [Example 30] | < 0.04 |  |
| CCC[C@H]1C(=O)Nc2ccccc2N1C(=O)OC(C)C [Example 31] | 0.05 (≈ 0.181 µM) |  |
| CSC[C@H]1C(=O)Nc2ccccc2N1C(=O)OC(C)C [Example 34] | < 0.001 | 34 to 340 |
| CC[C@H]1C(=O)Nc2ccc(Cl)cc2N1C(=O)OC(C)C [Example 35] | < 0.08 | 33.7 |
| CSC[C@H]1C(=O)Nc2ccc(Cl)cc2N1C(=O)OC(C)C [Example 38] | < 0.001 | 15.2 |
| CC[C@H]1C(=O)Nc2ccc(F)cc2N1C(=O)OC(C)C [Example 39] | 0.008 (≈ 0.0285 µM) | 71.4 |
| CCC[C@H]1C(=O)Nc2ccc(F)cc2N1C(=O)OC(C)C [Example 40] | 0.08 (≈ 0.272 µM) | 34 to 340 |
| CSC[C@H]1C(=O)Nc2ccc(F)cc2N1C(=O)OC(C)C [Example 42] | < 0.008 |  |
| CC[C@H]1C(=O)Nc2ccc(OC)cc2N1C(=O)OC(C)C [Example 43] | < 0.001 |  |
| CCC[C@H]1C(=O)Nc2ccc(OC)cc2N1C(=O)OC(C)C [Example 44] | < 0.08 |  |
| CCOc1ccc2c(c1)N(C(=O)OC(C)C)[C@@H](CSC)C(=O)N2 [Example 52] | < 0.008 | 29.5 to 295 |
| CCCOc1ccc2c(c1)N(C(=O)OC(C)C)[C@@H](CSC)C(=O)N2 [Example 54] | 0.04 (≈ 0.113 µM) |  |
| C=C(C)OC(=O)N1c2cc(Cl)ccc2NC(=O)[C@@H]1CC [Example 57] | 0.001 (≈ 0.00339 µM) | 33.9 to 339 |
| C=CCOC(=O)N1c2cc(Cl)ccc2NC(=O)[C@@H]1CC [Example 58] | 0.01 (≈ 0.0339 µM) | 33.9 to 339 |
| C=C(C)OC(=O)N1c2cc(Cl)ccc2NC(=O)[C@@H]1CSC [Example 59] | 0.02 (≈ 0.0612 µM) | 55.1 |
| CCCOC(=O)N1c2cc(Cl)ccc2NC(=O)[C@@H]1CSC [Example 60] | 0.04 (≈ 0.122 µM) | 30.4 |
| CCOC(=O)N1c2cc(Cl)ccc2NC(=O)[C@@H]1CSC [Example 61] | 0.002 (≈ 0.00635 µM) | 31.8 to 318 |
| C=C(C)OC(=O)N1c2cc(F)ccc2NC(=O)[C@@H]1CC [Example 62] | 0.08 (≈ 0.287 µM) | 331 |
| C=C(C)OC(=O)N1c2cc(OC)ccc2NC(=O)[C@@H]1CSC [Example 68] | 0.008 (≈ 0.0248 µM) | 49.6 |
| CCOC(=O)N1c2cc(F)ccc2NC(=O)[C@@H]1CC [Example 78] | < 0.08 | 300 |
| CCC(C)OC(=O)N1c2cc(OC)ccc2NC(=O)[C@@H]1CSC (some centres unmarked) [Example 84g] |  | 349 |
| CC(C)OC(=O)N1c2cc(F)ccc2NC(=O)[C@@H]1C [Example 84i] | 0.08 (≈ 0.3 µM) | 638 |
| CCC(C)OC(=O)N1c2cc(F)ccc2NC(=O)[C@@H]1CC (some centres unmarked) [Example 84j] | < 0.08 | 296 |
| CCCCOC(=O)N1c2cc(F)ccc2NC(=O)[C@@H]1CC [Example 84l] | 0.08 (≈ 0.272 µM) | 510 |
| COC[C@H]1C(=O)Nc2ccc(F)cc2N1C(=O)OC(C)C [Example 84o] | 0.08 (≈ 0.27 µM) |  |
| COc1ccc2c(c1)N(C(=O)OC(C)C)[C@@H](CSC)C(=S)N2 [Example 85, S-4-Isopropoxycarbonyl-6-methoxy-3-(methylthiomethyl)-3,4-dihydroquinoxalin-2(1H)-thione] | 0.002 (≈ 0.00587 µM) | 23.5 |
| CC[C@H]1C(=S)Nc2ccccc2N1C(=O)OC(C)C [Example 86] | 0.001 (≈ 0.00359 µM) | 39.5 |
| CCC[C@H]1C(=S)Nc2ccccc2N1C(=O)OC(C)C [Example 87] | 0.004 (≈ 0.0137 µM) | 92.3 |
